Reference: patent publication US4828849A, “Surfactant inhibition of dental plaque” (Warner-Lambert Company, priority 1988, dated 1989)
Counter-ions that a name gives are not always drawn.

What was measured:
[1] = tested on: Streptococcus sanguis G9B, S. mutans Ingbritt and Actinomyces viscosus T14 V; test: Adherence assay: inhibition of initial adherence of bacteria to saliva-coated hydroxyapatite beads; assay type: cell-based; conditions: 50% inhibition of bacterial adherence to saliva-coated hydroxyapatite (HA) beads, determined graphically; surfactant dissolved in water; 37° C.; read-out: 50% Inhibition Concentration
Excerpt: S. sanguis G9B adheres well to saliva-coated hydroxyapatite. This attachment, in vivo, occurs within minutes. As plaque matures, the percentage of S. sanguis decreases, but its actual numbers remain high. In vivo and in vitro studies have shown S. sanguis to interact with other oral bacteria including S. mutans and Actinomyces viscosus. S. mutans has also been implicated as a cause of dental caries. Stock cultures were kept both lyophillized and frozen in Brain Heart Infusion Broth (BHI, Difco Laboratories) at -70° C.; the latter being used to inoculate starter cultures. After overnight incubation at 37° C, a 0.5% inoculum was used to inoculate 100 ml of BHI which was subsequently incubated 20 hours at 37° C. The cells were radioactivately labeled by adding tritiated thymidine (methyl-3H) to a final specific activity of 2 μCi/ml. After incubation, the cells were harvested by centrifugation (16,320× g, 15 minutes, 4° C.), washed three times with buffered KCl (2 mM potassium phosphate buffer, 1 mM CaCl2, and 5 mM KCl, pH 6.0) (Ref. 8), and resuspended to a turbidity of 300 Klett units (Klett-Summerson colorimeter; blue, #47 filter). This bacterial stock cell suspension was then diluted with buffered KCl to produce a series of cell suspensions ranging from 1.6 to 300 Klett units. Duplicate 50 ul aliquots of each cell suspension were counted in Aquasol-2 to determine their specific activities.
A. viscosus T14 V was grown for 48 hours at 37° C. under anaerobic conditions in tryptic soy broth (TSB) containing glucose.
Whole, paraffin-stimulated saliva was collected into ice-chilled tubes and clarified by centrifugation ([…], 15 minutes, 4° C.). The supernatant fluids were removed and aliquots were stored frozen at -20° C. until used. A pool of saliva from several individuals was used routinely; and was collected after a 10 hour fast with no food or oral hygiene on the morning of collection.
Spheroidal hydroxyapatite beads (manufactured by BDH Chemicals, Poole, England and obtained from Gallard-Schlessinger Co., Carle Place, NY) were distributed into a 12×75 mm polystyrene test tube (Walter Sarstedt, Inc., Princeton, N.J.) and mixed with either 1 ml of saliva or buffered KCl for 1.5 hours at ambient temperature with rotation (20 rpm). Each tube contained 40±2 mg of HA beads, distributed using a calibrated stainless steel ladle.
The cells were radioactively labelled by addition of 1.5 μCi/ml methyl-^3 H thymidine to the cell suspension media. The hydroxyapatite (HA) beads were coated with either a surfactant or a control or saliva and rotated for 30 minutes at ambient temperature. The excess agent or saliva was removed by washing with buffer. Radioactively-labelled cells suspended in either buffer or varying concentrations of the surfactant were added to the beads. The beads and cells were incubated at 37° C., 10 minutes for the streptococcal strains and 15 minutes for the actinomycete, after which the beads were washed to remove the unbound cells and the radioactivity bound to them was determined by scintillation counting. S. mutans Ingbritt was also assayed for sucrose-mediated adherence by addition of 1% sucrose to the cells and surfactant mixture. The concentration to effect 50% inhibition of bacterial adherence to the HA beads was determined graphically.
Several surfactant agents according to the invention dissolved in water were employed in the assay.

glucosyl transferase = test: Assay for the inhibition of glucosyl transferase activity (14C-sucrose incorporation into glucan); assay type: biochemical; conditions: 50% inhibition of glucosyl transferase activity; 0.05M sodium acetate buffer, pH 5.5, 37° C.; read-out: 50% Inhibition Concentration
Description: An assay for the inhibition of glucosyl transferase activity was developed wherein the enzyme was incubated for 10 minutes with varying concentrations of the surfactant in 0.05M sodium acetate buffer, pH 5.5 at 37° C., with agitation. The reaction was then started by adding the remainder of the assay mixture (to a final volume of 450 mcl) consisting of: 2.5 μCi uniformly-labelled 14C -sucrose, 1% unlabelled sucrose, sodium fluoride and Dextran T10 in acetate buffer. Samples were removed at timed intervals, spotted to filters and the filters were treated with methanol. Radioactivity incorporated into glucan was plotted versus time as compared to a control preparation. By this procedure the concentration of test reagent necessary to achieve 50% inhibition of glucosyl transferase activity was determined.

| Compound | IC50 [1] [mM] | IC50 (glucosyl transferase) [mM] |
| --- | --- | --- |
| CCCCCCCCCCCCCCCC(=O)N(C)CCS(=O)(=O)O [Surfactant 1, N--methyl-N--palmitoyltaurine, sodium salt] | 0.25 | 1 |
| CCCCCCCC/C=C\CCCCCCCC(=O)N(C)CCS(=O)(=O)O [Surfactant 2, N--methyl-N--oleolytaurine sodium salt] | 0.35 | 1 |
| Cocamidopropylhydroxysultaine [Surfactant 4] | 15 |  |
| Cocamidopropylhydroxysultaine, potassium salt [Surfactant 5] | 25 |  |
| Cocoylisethionate, sodium salt [Surfactant 6] | 0.1 |  |
| N--methyl-N--cocoyltaurine sodium salt [Surfactant 3] | 0.3 | 1 |
